Data published in patent US10004701B2, “Methods and compositions for treating infection” (UNIVERSITY OF ROCHESTER, priority 2012, dated 2018).
Where a name gives a salt, the structure may show the parent alone. Read-outs that look alike come from different tables or passages of the source.

Columns and labels:
Assay in all cases: AK assay 384-well format, Prestwick library screening
[1] = system: E. faecium; assay type: cell-based, Enterococcus faecium; conditions: 50 μM final drug concentration; for fold induction at 50 µM: Enterococcus faecium, 3 h
[2] = system: A. baumannii strain 98-37-09; assay type: cell-based, Acinetobacter baumannii; conditions: 50 μM final drug concentration; for fold induction at 50 µM: Acinetobacter baumannii, 983709, 3 h
[3] = system: P. aeruginosa; assay type: cell-based, Pseudomonas aeruginosa; conditions: 50 μM final drug concentration; for fold induction at 50 µM: Pseudomonas aeruginosa, 3 h
[4] = system: K. pneumoniae; assay type: cell-based, Klebsiella pneumoniae; conditions: 50 μM final drug concentration; for fold induction at 50 µM: Klebsiella pneumoniae, 3 h
[5] = system: E. cloacae; assay type: cell-based, Enterobacter cloacae; conditions: 50 μM final drug concentration; for fold induction at 50 µM: Enterobacter cloacae, 3 h
[6] = system: S. aureus strain USA300-0114; assay type: cell-based, Staphylococcus aureus; conditions: 50 μM final drug concentration; for fold induction at 50 µM: Staphylococcus aureus, USA300, 3 h
[7] = system: E. coli; assay type: cell-based, Escherichia coli; conditions: 50 μM final drug concentration; for fold induction at 50 µM: Escherichia coli, 3 h
[8] = 384-well format, cutoff for positive-scoring molecules 3-fold increase, read-out: AK-based Prestwick Library Screening Results, E. faecium (increase in extracellular AK activity)
[9] = 384-well format, cutoff for positive-scoring molecules 3-fold increase, read-out: AK-based Prestwick Library Screening Results, A. baumannii (increase in extracellular AK activity)
[10] = 384-well format, cutoff for positive-scoring molecules 3-fold increase, read-out: AK-based Prestwick Library Screening Results, P. aeruginosa (increase in extracellular AK activity)
[11] = 384-well format, cutoff for positive-scoring molecules 3-fold increase, read-out: AK-based Prestwick Library Screening Results, K. pneumoniae (increase in extracellular AK activity)
[12] = 384-well format, cutoff for positive-scoring molecules 3-fold increase, read-out: AK-based Prestwick Library Screening Results, E. cloacae (increase in extracellular AK activity)
[13] = 384-well format, cutoff for positive-scoring molecules 3-fold increase, read-out: AK-based Prestwick Library Screening Results, S. aureus (increase in extracellular AK activity)
[14] = 384-well format, cutoff for positive-scoring molecules 3-fold increase, read-out: AK-based Prestwick Library Screening Results, E. coli (increase in extracellular AK activity)
[15] = planktonic, cutoff for positive 3-fold increase, read-out: AK-based Prestwick Library Screening Results, E. faecium (fold increase in extracellular AK activity)
[16] = planktonic, cutoff for positive 3-fold increase, read-out: AK-based Prestwick Library Screening Results, A. baumannii (fold increase in extracellular AK activity)
[17] = planktonic, cutoff for positive 3-fold increase, read-out: AK-based Prestwick Library Screening Results, P. aeruginosa (fold increase in extracellular AK activity)
[18] = planktonic, cutoff for positive 3-fold increase, read-out: AK-based Prestwick Library Screening Results, K. pneumoniae (fold increase in extracellular AK activity)
[19] = planktonic, cutoff for positive 3-fold increase, read-out: AK-based Prestwick Library Screening Results, E. cloacae (fold increase in extracellular AK activity)
[20] = planktonic, cutoff for positive 3-fold increase, read-out: AK-based Prestwick Library Screening Results, S. aureus (fold increase in extracellular AK activity)
[21] = planktonic, cutoff for positive 3-fold increase, read-out: AK-based Prestwick Library Screening Results, E. coli (fold increase in extracellular AK activity)
[22] = 384-well format, cutoff for positive-scoring molecules 3-fold increase
[23] = planktonic E. faecium, cutoff for positive-scoring molecules 3-fold increase, read-out: AK-based Prestwick Library Screening Results, E. faecium (increase in extracellular AK activity)
[24] = planktonic A. baumannii, cutoff for positive-scoring molecules 3-fold increase, read-out: AK-based Prestwick Library Screening Results, A. baumannii (increase in extracellular AK activity)
[25] = planktonic P. aeruginosa, cutoff for positive-scoring molecules 3-fold increase, read-out: AK-based Prestwick Library Screening Results, P. aeruginosa (increase in extracellular AK activity)
[26] = planktonic K. pneumoniae, cutoff for positive-scoring molecules 3-fold increase, read-out: AK-based Prestwick Library Screening Results, K. pneumoniae (increase in extracellular AK activity)
[27] = planktonic E. cloacae, cutoff for positive-scoring molecules 3-fold increase, read-out: AK-based Prestwick Library Screening Results, E. cloacae (increase in extracellular AK activity)
[28] = planktonic S. aureus, cutoff for positive-scoring molecules 3-fold increase, read-out: AK-based Prestwick Library Screening Results, S. aureus (increase in extracellular AK activity)
[29] = planktonic E. coli, cutoff for positive-scoring molecules 3-fold increase, read-out: AK-based Prestwick Library Screening Results, E. coli (increase in extracellular AK activity)

SMILES: C#C[C@]1(O)CC[C@H]2[C@@H]3CCC4=CC(=O)CC[C@@H]4[C@H]3CC[C@@]21C [Norethindrone]
- fold induction at 50 µM [1, 8]: 1
- fold induction at 50 µM [2, 9]: 0.7
- fold induction at 50 µM [3, 10]: 0.8
- fold induction at 50 µM [4, 11]: 0.7
- fold induction at 50 µM [5, 12]: 0.9
- fold induction at 50 µM [6, 13]: 0.8
- fold induction at 50 µM [7, 14]: 0.7

SMILES: C[C@@H]1O[C@@H](O[C@H]2[C@H](Oc3cc(O)c4c(c3)O[C@H](c3ccc(O)cc3)CC4=O)O[C@H](CO)[C@@H](O)[C@@H]2O)[C@H](O)[C@H](O)[C@H]1O [Naringin hydrate]
- fold induction at 50 µM [1, 15]: 1
- fold induction at 50 µM [2, 16]: 1.2
- fold induction at 50 µM [3, 17]: 1.3
- fold induction at 50 µM [4, 18]: 0.9
- fold induction at 50 µM [5, 19]: 1.2
- fold induction at 50 µM [6, 20]: 1.2
- fold induction at 50 µM [7, 21]: 1.3

SMILES: COc1cc(/C=C/C(=O)N2CCC=CC2=O)cc(OC)c1OC [Piperlongumine]
- AK-based Prestwick Library Screening Results, E. faecium (fold increase in extracellular AK activity) ([1]; planktonic, […]): 1.0
- AK-based Prestwick Library Screening Results, A. baumannii (fold increase in extracellular AK activity) ([2]; planktonic, […]): 1.0
- AK-based Prestwick Library Screening Results, P. aeruginosa (fold increase in extracellular AK activity) ([3]; planktonic, […]): 1.1
- AK-based Prestwick Library Screening Results, K. pneumoniae (fold increase in extracellular AK activity) ([4]; planktonic, […]): 1.0
- AK-based Prestwick Library Screening Results, E. cloacae (fold increase in extracellular AK activity) ([5]; planktonic, […]): 1.6
- AK-based Prestwick Library Screening Results, S. aureus (fold increase in extracellular AK activity) ([6]; planktonic, […]): 1.0
- AK-based Prestwick Library Screening Results, E. coli (fold increase in extracellular AK activity) ([7]; planktonic, […]): 1.2

SMILES: CC(=O)Oc1cc(C(C)C)c(OCCN(C)C)cc1C.Cl [Moxisylyte hydrochoride]
- AK-based Prestwick Library Screening Results, E. faecium (increase in extracellular AK activity) [1, 22]: 0.9
- AK-based Prestwick Library Screening Results, A. baumannii (increase in extracellular AK activity) [2, 22]: 1.1
- AK-based Prestwick Library Screening Results, P. aeruginosa (increase in extracellular AK activity) [3, 22]: 1.1
- AK-based Prestwick Library Screening Results, K. pneumoniae (increase in extracellular AK activity) [4, 22]: 1.0
- AK-based Prestwick Library Screening Results, E. cloacae (increase in extracellular AK activity) [5, 22]: 1.6
- AK-based Prestwick Library Screening Results, S. aureus (increase in extracellular AK activity) [6, 22]: 1.1
- AK-based Prestwick Library Screening Results, E. coli (increase in extracellular AK activity) [7, 22]: 1.2

SMILES: C=C1[C@@H]2CC[C@H]3[C@]4(C)C[C@H](O[C@@H]5O[C@H](CO)[C@@H](OS(=O)(=O)O)[C@H](OS(=O)(=O)O)[C@H]5OC(=O)CC(C)C)C[C@@H](C(=O)O)[C@H]4CC[C@]3(C2)[C@@H]1O [Atractyloside potassium salt]
- fold induction at 50 µM ([1]; planktonic, […], read-out: AK-based Prestwick Library Screening Results, E. faecium (fold increase in extracellular AK activity)): 0.9
- fold induction at 50 µM ([2]; planktonic, […], read-out: AK-based Prestwick Library Screening Results, A. baumannii (fold increase in extracellular AK activity)): 0.8
- fold induction at 50 µM ([3]; planktonic, […], read-out: AK-based Prestwick Library Screening Results, P. aeruginosa (fold increase in extracellular AK activity)): 0.6
- fold induction at 50 µM ([4]; planktonic, […], read-out: AK-based Prestwick Library Screening Results, K. pneumoniae (fold increase in extracellular AK activity)): 0.6
- fold induction at 50 µM ([5]; planktonic, […], read-out: AK-based Prestwick Library Screening Results, E. cloacae (fold increase in extracellular AK activity)): 0.8
- fold induction at 50 µM ([6]; planktonic, […], read-out: AK-based Prestwick Library Screening Results, S. aureus (fold increase in extracellular AK activity)): 0.7
- fold induction at 50 µM ([7]; planktonic, […], read-out: AK-based Prestwick Library Screening Results, E. coli (fold increase in extracellular AK activity)): 0.7

SMILES: c1ccc2c(CC3=NCCN3)cccc2c1 [Naphazoline hydrochloride]
- fold induction at 50 µM [1, 8]: 1.1
- fold induction at 50 µM [2, 9]: 1.1
- fold induction at 50 µM [3, 10]: 1
- fold induction at 50 µM [4, 11]: 0.8
- fold induction at 50 µM [5, 12]: 1.5
- fold induction at 50 µM [6, 13]: 1
- fold induction at 50 µM [7, 14]: 1.3

SMILES: CCn1nc(C(=O)O)c(=O)c2cc3c(cc21)OCO3 [Cinoxacin]
- fold induction at 50 µM ([1]; cutoff for positive-scoring molecules 3-fold increase, read-out: AK-based Prestwick Library Screening Results, E. faecium (fold increase in extracellular AK activity)): 1.1
- fold induction at 50 µM ([2]; cutoff for positive-scoring molecules 3-fold increase, read-out: AK-based Prestwick Library Screening Results, A. baumannii (fold increase in extracellular AK activity)): 1.3
- fold induction at 50 µM ([3]; cutoff for positive-scoring molecules 3-fold increase, read-out: AK-based Prestwick Library Screening Results, P. aeruginosa (fold increase in extracellular AK activity)): 1.2
- fold induction at 50 µM ([4]; cutoff for positive-scoring molecules 3-fold increase, read-out: AK-based Prestwick Library Screening Results, K. pneumoniae (fold increase in extracellular AK activity)): 2.1
- fold induction at 50 µM ([5]; cutoff for positive-scoring molecules 3-fold increase, read-out: AK-based Prestwick Library Screening Results, E. cloacae (fold increase in extracellular AK activity)): 1.4
- fold induction at 50 µM ([6]; cutoff for positive-scoring molecules 3-fold increase, read-out: AK-based Prestwick Library Screening Results, S. aureus (fold increase in extracellular AK activity)): 1.3
- fold induction at 50 µM ([7]; cutoff for positive-scoring molecules 3-fold increase, read-out: AK-based Prestwick Library Screening Results, E. coli (fold increase in extracellular AK activity)): 10.3

SMILES: NC[C@H]1CC[C@H](C(=O)O)CC1 [Tranexamic acid]
- fold induction at 50 µM [1, 8]: 1.1
- fold induction at 50 µM [2, 9]: 0.8
- fold induction at 50 µM [3, 10]: 0.9
- fold induction at 50 µM [4, 11]: 0.7
- fold induction at 50 µM [5, 12]: 0.9
- fold induction at 50 µM [6, 13]: 0.7
- fold induction at 50 µM [7, 14]: 0.8

SMILES: CC[C@]12CCCN3CCc4c(n(c5ccccc45)[C@](O)(C(=O)OC)C1)[C@@H]32 [Epivincamine]
- AK-based Prestwick Library Screening Results, E. faecium (fold increase in extracellular AK activity) ([1]; planktonic, […]): 1.0
- AK-based Prestwick Library Screening Results, A. baumannii (fold increase in extracellular AK activity) ([2]; planktonic, […]): 1.2
- AK-based Prestwick Library Screening Results, P. aeruginosa (fold increase in extracellular AK activity) ([3]; planktonic, […]): 1.2
- AK-based Prestwick Library Screening Results, K. pneumoniae (fold increase in extracellular AK activity) ([4]; planktonic, […]): 1.2
- AK-based Prestwick Library Screening Results, E. cloacae (fold increase in extracellular AK activity) ([5]; planktonic, […]): 1.6
- AK-based Prestwick Library Screening Results, S. aureus (fold increase in extracellular AK activity) ([6]; planktonic, […]): 1.0
- AK-based Prestwick Library Screening Results, E. coli (fold increase in extracellular AK activity) ([7]; planktonic, […]): 1.3

SMILES: CCc1oc2ccccc2c1C(=O)c1cc(Br)c(O)c(Br)c1 [Benzbromarone]
- fold induction at 50 µM [1, 15]: 1.2
- fold induction at 50 µM [2, 16]: 1.4
- fold induction at 50 µM [3, 17]: 1.5
- fold induction at 50 µM [4, 18]: 0.9
- fold induction at 50 µM [5, 19]: 1.4
- fold induction at 50 µM [6, 20]: 0.4
- fold induction at 50 µM [7, 21]: 1.1

SMILES: CC1(C)S[C@@H]2[C@H](NC(=O)[C@H](N)c3ccc(O)cc3)C(=O)N2[C@H]1C(=O)O [Amoxicillin]
- fold induction at 50 µM [1, 23]: 1.4
- fold induction at 50 µM [2, 24]: 1.7
- fold induction at 50 µM [3, 25]: 0.7
- fold induction at 50 µM [4, 26]: 0.7
- fold induction at 50 µM [5, 27]: 1
- fold induction at 50 µM [6, 28]: 0.4
- fold induction at 50 µM [7, 29]: 10.6

SMILES: COC(=O)[C@@H]1[C@H]2C[C@H]3c4[nH]c5ccccc5c4CCN3C[C@@H]2CC[C@@H]1O [Yohimbine hydrochloride]
- fold induction at 50 µM [1, 23]: 0.9
- fold induction at 50 µM [2, 24]: 0.8
- fold induction at 50 µM [3, 25]: 0.9
- fold induction at 50 µM [4, 26]: 0.8
- fold induction at 50 µM [5, 27]: 1
- fold induction at 50 µM [6, 28]: 0.6
- fold induction at 50 µM [7, 29]: 0.8
